The source of these data is patent US9873883B2, “Glyphosate resistant plants and associated methods” (Dow AgroSciences LLC, priority 2012, dated 2018).

Assay [1] deals with T1, Triticum aestivum (wheat) EPSP synthase DGT-7 variant DGT-7 v7 (G→A, P→S; GAPS) (Triticum aestivum, UniProt B5M6A1, G167A/P172S).
T1 construct: GAPS double mutant
As to the kind of experiment: In vitro kinetic assay (inorganic phosphate production, malachite green). Type of assay: biochemical. Conditions: IC50 (glyphosate).

Assay [2] deals with T2, Brassica napus (canola) EPSP synthase DGT-3 (GENBANK P17688) variant DGT-3 v7 (G→A, P→S; GAPS) (Brassica napus, UniProt P17688, G173A/P178S).
T2 construct: made in house; host or cells: E. coli Rosetta2 (DE3)
T2 sequence (P17688 73-516 G173A/P178S, one chain of several): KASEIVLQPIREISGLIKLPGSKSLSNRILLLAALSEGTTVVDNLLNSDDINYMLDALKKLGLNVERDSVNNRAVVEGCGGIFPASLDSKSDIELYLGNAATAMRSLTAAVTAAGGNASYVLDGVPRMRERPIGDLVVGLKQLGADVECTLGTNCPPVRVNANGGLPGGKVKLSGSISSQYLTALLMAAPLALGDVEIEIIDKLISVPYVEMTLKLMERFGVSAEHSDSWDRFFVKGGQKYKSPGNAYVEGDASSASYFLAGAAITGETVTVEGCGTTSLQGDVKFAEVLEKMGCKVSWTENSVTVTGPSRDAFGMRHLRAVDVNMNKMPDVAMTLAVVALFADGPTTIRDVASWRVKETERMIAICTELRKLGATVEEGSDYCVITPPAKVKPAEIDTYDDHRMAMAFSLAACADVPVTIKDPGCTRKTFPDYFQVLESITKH
Described as above. It is filed as biochemical. The note with it: IC50 (glyphosate).

In assay [3] the target is Glycine max (soybean) EPSP synthase DGT-1 variant DGT-1 v7 (G→A, P→S; GAPS) (Glycine max, UniProt I1J7U9, G182A/P187S). The assay is described as above. Type of assay: biochemical.
Sequence of Glycine max (soybean) EPSP synthase DGT-1 variant DGT-1 v7 (G→A, P→S; GAPS) (I1J7U9 entry or part of it G182A/P187S): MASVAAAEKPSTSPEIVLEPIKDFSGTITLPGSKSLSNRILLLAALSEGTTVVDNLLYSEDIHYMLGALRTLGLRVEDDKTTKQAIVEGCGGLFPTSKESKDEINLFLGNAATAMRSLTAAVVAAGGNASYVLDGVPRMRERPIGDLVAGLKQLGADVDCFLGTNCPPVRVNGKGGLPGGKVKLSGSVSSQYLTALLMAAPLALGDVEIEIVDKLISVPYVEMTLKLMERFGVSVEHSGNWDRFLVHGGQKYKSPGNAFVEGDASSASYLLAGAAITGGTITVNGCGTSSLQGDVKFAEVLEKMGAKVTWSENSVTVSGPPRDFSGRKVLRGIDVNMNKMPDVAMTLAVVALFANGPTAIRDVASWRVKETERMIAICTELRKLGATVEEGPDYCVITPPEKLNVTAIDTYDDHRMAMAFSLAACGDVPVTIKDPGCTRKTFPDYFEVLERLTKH
In assay [4] the test system is Arabidopsis transformed with TraP9 v2::dgt-14 (pDAB105527). Put plainly: Postemergence glyphosate tolerance, visual injury. It is filed as in vivo, Arabidopsis thaliana. Conditions: 2 weeks after application.
Assay [5] deals with T4 Arabidopsis plants containing dgt-14 spiked into wildtype. Put plainly: dgt-14 as a selectable marker with glyphosate selection. Type of assay: in vivo, Arabidopsis thaliana. The note with it: applied 7 and 11 DAP, scored 17 DAP. On the procedure:
The use of dgt-14 as a selectable marker for glyphosate selection agent is tested with the Arabidopsis transformed plants described above. Approximately 50 T4 generation Arabidopsis seed (homozygous for dgt-14) are spiked into approximately 5,000 wildtype (sensitive to glyphosate) seed. The seeds are germinated and plantlets are sprayed with a selecting dose of glyphosate. Several treatments of glyphosate are compared; each tray of plants receives either one or two application timings of glyphosate in one of the following treatment schemes: 7 DAP (days after planting), 11 DAP, or 7 followed by 11 DAP. Since all plants also contain a glufosinate resistance gene in the same transformation vector, dgt-14 containing plants selected with glyphosate can be directly compared to DSM-2 or pat containing control plants selected with glufosinate.
Glyphosate treatments are applied with a DeVilbiss spray tip as previously described. Transgenic plants containing dgt-14 are identified as “resistant” or “sensitive” 17 DAP. […] Sensitive and resistant plants are counted and the number of glyphosate tolerant plants is found to correlate with the original number of transgenic seed containing the dgt-14 transgene which are planted.

The subject of assay [6] is Non-transformed control Arabidopsis (cv. Columbia). Put plainly: Postemergence glyphosate tolerance, visual injury. It is filed as in vivo, Arabidopsis thaliana. Conditions: 840 g ae/ha, 2 weeks after application.

Structures are written as SMILES. Read-outs that look alike come from different tables or passages of the source.

One may read the IC50 as the midpoint of a concentration-inhibition curve.

T1 sequence (B5M6A1 entry or part of it G167A/P172S): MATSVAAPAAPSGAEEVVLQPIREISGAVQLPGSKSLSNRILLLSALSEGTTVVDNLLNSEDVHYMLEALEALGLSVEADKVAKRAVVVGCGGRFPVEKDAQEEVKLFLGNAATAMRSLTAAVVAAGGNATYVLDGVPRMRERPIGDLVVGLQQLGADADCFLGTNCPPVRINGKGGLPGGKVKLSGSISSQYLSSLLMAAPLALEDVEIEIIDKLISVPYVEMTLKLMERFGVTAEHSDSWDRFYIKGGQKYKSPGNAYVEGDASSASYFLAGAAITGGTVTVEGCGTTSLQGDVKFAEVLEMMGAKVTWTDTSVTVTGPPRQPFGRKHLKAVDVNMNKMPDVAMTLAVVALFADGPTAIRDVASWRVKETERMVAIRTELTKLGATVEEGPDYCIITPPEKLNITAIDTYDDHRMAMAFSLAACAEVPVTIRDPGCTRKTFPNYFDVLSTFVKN

As for `O=C(O)CNCP(=O)(O)O` [glyphosate, N-(phosphonomethyl)glycine], the 50% inhibitory concentration (IC50) is 15.4 mM in assay [1] (at 60 μM PEP); 19.7 mM in assay [1] (at 1 mM PEP); 42 mM in assay [2] (at 60 μM PEP); 50.5 mM in assay [2] (at 1 mM PEP, values greater than 50 are estimates); greater than 80 mM in assay [3]; greater than 80 mM in assay [3] (read-out: IC50 (glyphosate), at 60 μM PEP, values greater than 50 are estimates). Also, the “Visual % injury (Ave)” value in assay [4] (T2, 840 g ae/ha) came to 0.0%; in assay [4] (T3, 840 g ae/ha), 0.0%; in assay [6] (T2 study), 100.0%; in assay [6] (T3 study), 100.0%. In addition, in assay [5], the “effective selection for transgenic plants” value is 26.25-1680 g ae/ha.
